Where two headings read alike, the source gives them in different places.
How the values were obtained:
[1] = molecular target: T1, recombinant human C-proteinase (Homo sapiens, UniProt P13497); experiment: C-proteinase IC50 assay with fluorogenic peptide; type: biochemical
T1 sequence (P13497 121-986): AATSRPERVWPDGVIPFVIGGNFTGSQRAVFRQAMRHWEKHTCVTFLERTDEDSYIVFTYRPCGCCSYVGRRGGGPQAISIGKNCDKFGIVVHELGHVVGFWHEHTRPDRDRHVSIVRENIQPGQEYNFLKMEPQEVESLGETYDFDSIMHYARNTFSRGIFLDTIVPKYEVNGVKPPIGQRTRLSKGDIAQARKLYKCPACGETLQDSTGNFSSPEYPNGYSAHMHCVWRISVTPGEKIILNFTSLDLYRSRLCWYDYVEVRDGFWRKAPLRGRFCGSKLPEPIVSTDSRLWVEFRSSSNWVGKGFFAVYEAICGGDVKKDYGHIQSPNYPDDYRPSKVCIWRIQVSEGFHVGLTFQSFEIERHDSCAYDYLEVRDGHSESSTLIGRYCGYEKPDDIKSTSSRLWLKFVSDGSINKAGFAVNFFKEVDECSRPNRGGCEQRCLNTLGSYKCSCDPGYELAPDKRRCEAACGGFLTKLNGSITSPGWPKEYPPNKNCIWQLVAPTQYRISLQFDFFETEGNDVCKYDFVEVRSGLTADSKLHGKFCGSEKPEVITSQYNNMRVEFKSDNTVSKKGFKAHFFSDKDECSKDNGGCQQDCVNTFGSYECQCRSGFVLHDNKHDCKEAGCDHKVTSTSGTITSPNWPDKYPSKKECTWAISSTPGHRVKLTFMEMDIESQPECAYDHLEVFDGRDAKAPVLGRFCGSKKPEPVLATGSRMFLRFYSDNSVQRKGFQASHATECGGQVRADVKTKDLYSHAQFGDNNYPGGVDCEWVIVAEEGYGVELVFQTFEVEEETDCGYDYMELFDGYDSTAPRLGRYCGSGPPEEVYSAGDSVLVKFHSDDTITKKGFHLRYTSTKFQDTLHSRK
Description: The reaction was started with the addition of 20 μl of the recombinant human C-proteinase mix. The reaction proceeded for 4 hours at 37° C. and the fluorescence was measured using a Bio-Tek Fl-600.

[2] = tested on: human foreskin fibroblasts; experiment: Cytotoxicity: metabolic activity (WST-1) of quiescent fibroblasts exposed to inhibitor; type: cell-based; conditions: 25 μM compound, 0.5% DMSO, 48 hours, 60% or below = very sick or dead
Description: C-proteinase inhibitors were studied in cytotoxicity assays wherein quiescent cells were exposed to C-proteinase inhibitors for a given time and cell viability measured. By examining cellular metabolic activity, cell viability and cell survival were determined.
C-proteinase inhibitors were tested on human foreskin fibroblasts that had been grown to confluence in 96 well microtiter plates in Dulbecco's Modified Eagle Medium (DMEM) containing 10% fetal calf serum. Shortly before adding the inhibitors, the media was removed and 90 μl per microtiter well of fresh serum-free DMEM was added to the cells. The C-proteinase inhibitors were made up as concentrated stocks containing compound at 250 μM in the presence of 5% DMSO as solvent. A concentrated stock of 10 μl was added to each microtiter well to give a final compound concentration of 25 μM in the presence of 0.5% DMSO. The cells were incubated in the presence of the C-proteinase inhibitor for 48 hours, and then cell viability and survival were measured as a function of metabolic activity. To examine cellular metabolic activity, 10 μl of WST-1 reagent (Boehringer Mannheim) was added to each well of a 96 well microtiter plate containing quiescent cells that were already in media. The plate was incubated at 37° C. for 120 minutes and removed. The absorbance at 450 nm-650 nm was recorded. […] Controls included untreated healthy cells, and cells killed with 0.1% saponin.
Cytotoxicity was evaluated as a function of cellular survival. Cellular survival was determined by measuring the metabolic activity of the quiescent cells after exposure to the C-proteinase inhibitors. To determine the metabolic activity of the cells, the color change of a trazolium dye over time was examined according to Mossmann, […], Immunol. Methods 65:66; Carmichael, 1987, Cancer Res 47:936, incorporated herein by reference. Healthy cells cleaved the dye producing a colored product that can be quantitated. […] Dead cells had no metabolic activity and no effect on the dye was shown.
The amount of dye cleaved by cells that had been incubated with inhibitor, expressed as a percentage relative to untreated cells, is shown in TABLE 2. Cells that register at 60% or below are considered either very sick or dead. Control cells that were intentionally killed give a value of close to 20%.

[3] = recombinant human C-proteinase, 50 μM fluorogenic peptide, 4 hours at 37° C., read-out: IC50 (μM) Of Various C-Proteinase Inhibitors
[4] = IC50 (μM) Of Various C-Proteinase Inhibitors

| IC50 [1, 3] | SMILES | Percent Metabolic Activity of Fibroblasts Exposed To Various C-Proteinase Inhibitors Relative to Untreated Fibroblasts [2] | also measured |
| --- | --- | --- | --- |
| 2.43 µM | COc1ccc(S(=O)(=O)N(CCC(=O)NO)CCc2ccc(Cl)cc2)cc1 [compound 1300] | – | – |
| 0.84 µM | N/C(=N\O)c1cccc(S(=O)(=O)N(CCC(=O)NO)CCc2cccs2)c1 [compound 1457] | – | – |
| 0.25 µM | COc1ccc(CCN(CCC(=O)NO)S(=O)(=O)c2ccc(-c3nnn[nH]3)cc2)cc1 [compound 1496] | – | – |
| 0.25 µM | N/C(=N\O)c1cccc(S(=O)(=O)N(CCC(=O)NO)Cc2ccc3c(c2)OCO3)c1 [compound 1458] | – | – |
| 3.03 µM | O=C(CCN(CCc1ccccc1)S(=O)(=O)c1ccc([N+](=O)[O-])cc1)NO [compound 1268] | – | – |
| 3.57 µM | COc1ccc(S(=O)(=O)N(CCC(=O)NO)Cc2ccc(Cl)cc2)cc1 [compound 1237] | – | – |
| 0.18 µM | N/C(=N\O)c1ccc(S(=O)(=O)N(CCC(=O)NO)CCc2cccs2)cc1 [compound 1409] | – | – |
| 1.47 µM | O=C(CCN(Cc1ccc2c(c1)OCO2)S(=O)(=O)c1ccc(Br)s1)NO [compound 1367] | – | – |
| 1.67 µM | O=C(CCN(CCc1cccs1)S(=O)(=O)c1ccc(Br)s1)NO [compound 1417] | – | – |
| 3.5 µM | O=C(CCN(CCc1cccs1)S(=O)(=O)Cc1ccccc1)NO [compound 1414] | – | – |
| 3.95 µM | O=C(CCN(CCc1cccs1)S(=O)(=O)c1ccc(S(=O)(=O)c2ccccc2)s1)NO [compound 1419] | – | – |
| 0.7 µM | CS(=O)(=O)c1ccc(S(=O)(=O)N(CCC(=O)NO)CCc2cccs2)cc1 [compound 1463] | – | – |
| 1.21 µM | O=C(CCN(CCc1ccccc1)S(=O)(=O)c1cccs1)NO [compound 1270] | – | – |
| 1.77 µM | COc1ccc(S(=O)(=O)N(CCC(=O)NO)Cc2ccc3c(c2)OCO3)cc1OC [compound 1410] | – | – |
| 0.91 µM | O=C(CCN(Cc1ccc2c(c1)OCO2)S(=O)(=O)c1cccs1)NO [compound 1371] | – | – |
| 0.82 µM | CCCCOc1ccc(S(=O)(=O)N(CCC(=O)NO)CCc2cccs2)cc1 [compound 1416] | – | – |
| 0.39 µM | CC(=O)Nc1ccc(S(=O)(=O)N(CCC(=O)NO)CCc2cccs2)cc1 [compound 1411] | – | – |
| 0.35 µM | CS(=O)(=O)c1ccc(S(=O)(=O)N(CCC(=O)NO)Cc2ccc3c(c2)OCO3)cc1 [compound 1464] | – | – |
| 0.63 µM | COc1ccc(S(=O)(=O)N(CCC(=O)NO)Cc2ccc3c(c2)OCO3)cc1 [compound 1273] | – | – |
| 0.32 µM | COc1ccc(CCN(CCC(=O)NO)S(=O)(=O)c2cccc(N)c2)cc1 [compound 1492] | – | – |
| 1.51 µM | O=C(CCN(Cc1ccc2c(c1)OCO2)S(=O)(=O)c1cccc2nsnc12)NO [compound 1362] | – | – |
| 1.32 µM | O=C(CCN(CCc1cccs1)S(=O)(=O)c1cccs1)NO [compound 1425] | – | – |
| 1.46 µM | COc1ccccc1CCN(CCC(=O)NO)S(=O)(=O)c1ccc(C(=O)O)cc1 [compound 1405] | – | – |
| 0.88 µM | O=C(CCN(Cc1ccc2c(c1)OCO2)S(=O)(=O)c1ccc(S(=O)(=O)c2ccccc2)s1)NO [compound 1361] | – | – |

The next lines start with the compound.

| SMILES | IC50 [1, 3] | Percent Metabolic Activity of Fibroblasts Exposed To Various C-Proteinase Inhibitors Relative to Untreated Fibroblasts [2] | also measured |
| --- | --- | --- | --- |
| O=C(CCN(CCc1cccs1)S(=O)(=O)c1ccc(S(=O)(=O)c2ccccc2)s1)NO [Compound 1419] | – | 104.7% | – |
| COc1ccc(S(=O)(=O)N(CCC(=O)NO)CCN2CCOCC2)cc1 [compound 1131] | – | – | IC50 [1, 4]: 80.5 µM |
| CS(=O)(=O)c1ccc(S(=O)(=O)N(CCC(=O)NO)CCc2cccs2)cc1 [Compound 1463] | – | 110.0% | – |
| N/C(=N\O)c1cccc(S(=O)(=O)N(CCC(=O)NO)Cc2ccc3c(c2)OCO3)c1 [Compound 1458] | – | 111.0% | – |
| CCCCOc1ccc(S(=O)(=O)N(CCC(=O)NO)Cc2ccc3c(c2)OCO3)cc1 [Compound 1372] | – | 109.2% | – |
| COc1ccc(S(=O)(=O)N(CCC(=O)NO)CC2COc3ccccc3O2)cc1 (centres unmarked) [Compound 1374] | – | 117.6% | – |
| COc1ccccc1CCN(CCC(=O)NO)S(=O)(=O)c1ccc(C(=O)O)cc1 [Compound 1405] | – | 114.5% | – |
| CCCCCCCCS(=O)(=O)N(CCC(=O)NO)Cc1ccc2c(c1)OCO2 [Compound 1359] | – | 101.1% | – |
| O=C(CCN(CCc1cccs1)S(=O)(=O)Cc1ccccc1)NO [Compound 1414] | – | 112.6% | – |
| CC(=O)Nc1ccc(S(=O)(=O)N(CCC(=O)NO)Cc2ccc3c(c2)OCO3)cc1 [Compound 1357] | – | 108.1% | – |
| CCCCOc1ccc(S(=O)(=O)N(CCC(=O)NO)CCc2cccs2)cc1 [Compound 1416] | – | 92.8% | – |
| COc1ccc(S(=O)(=O)N(CCc2ccccc2)CC(=O)NO)cc1 [compound 128] | – | – | IC50 [1, 4]: 15.3 µM |
| N/C(=N\O)c1ccc(S(=O)(=O)N(CCC(=O)NO)Cc2ccc3c(c2)OCO3)cc1 [compound 1369] | 0.23 µM | – | – |
| COc1ccc(CCN(CC(=O)NO)S(=O)(=O)c2ccc(OC)cc2)cc1 [compound 204] | 22.1 µM | – | – |
| COc1ccc(S(=O)(=O)N(CCC(=O)NO)c2ccccc2)cc1 [compound 124] | – | – | IC50 [1, 4]: 2 µM |
| COc1ccc(S(=O)(=O)N(CCC(=O)NO)Cc2ccc3c(c2)OCO3)cc1OC [Compound 1410] | – | 108.6% | – |
| N/C(=N\O)c1ccc(S(=O)(=O)N(CCC(=O)NO)Cc2ccc3c(c2)OCO3)cc1 [Compound 1369] | – | 117.1% | – |
| COc1ccc(S(=O)(=O)N(CCC(=O)NO)CCc2ccccn2)cc1 [compound 1132] | – | – | IC50 [1]: 8 µM |
| CCCCOc1ccc(S(=O)(=O)N(CCC(=O)NO)Cc2ccc3c(c2)OCO3)cc1 [compound 1372] | 1.7 µM | – | – |
| O=C(CCN(CCc1cccs1)S(=O)(=O)c1cccs1)NO [Compound 1425] | – | 109.5% | – |
| COc1ccc(S(=O)(=O)N(CCC(=O)NO)C2C3CC4CC(C3)CC2C4)cc1 (centres unmarked) [Compound 1335] | – | 113.3% | – |
| N/C(=N\O)c1ccc(S(=O)(=O)N(CCC(=O)NO)CCc2cccs2)cc1 [Compound 1409] | – | 108.8% | – |
| COc1ccc(N(CCC(=O)NO)S(=O)(=O)c2ccc(OC)cc2)cc1 [compound 208] | – | – | IC50 [1, 4]: 1.68 µM; IC50 ([1]; IC50 of Cpase): 1.68 µM |
| O=C(CCN(Cc1ccc2c(c1)OCO2)S(=O)(=O)c1ccc(S(=O)(=O)c2ccccc2)s1)NO [Compound 1361] | – | 103.4% | – |
| COc1ccc(CCN(CCC(=O)NO)S(=O)(=O)c2cccc(/C(N)=N/O)c2)cc1 [compound 1456] | – | – | IC50 [1, 4]: 0.4 µM |
| COc1ccc(S(=O)(=O)N(CCC(=O)NO)Cc2ccccc2)cc1 [compound 121] | – | – | IC50 [1, 4]: 9 µM |
| COc1ccc(S(=O)(=O)N(CCC(=O)NO)C2C3CC4CC(C3)CC2C4)cc1 (centres unmarked) [compound 1335] | 36.5 µM | – | – |
| CC(=O)Nc1ccc(S(=O)(=O)N(CCC(=O)NO)Cc2ccc3c(c2)OCO3)cc1 [compound 1357] | 0.55 µM | – | – |
